According to ChEMBL document CHEMBL4052619, “First example of peptides targeting the dimer interface of Leishmania infantum trypanothione reductase with potent in vitro antileishmanial activity” (Eur J Med Chem, 2017):
Calls of active or inactive are those of the source. The rule behind the calls is not given here. Bridge positions count the residues as written; N and C are the ends. Square brackets hold non-standard residues; d marks the D form. Peptide text beside a SMILES is read from it. ξ: configuration not given here. ξNle = CCCCC(N)C(=O)O

Key:
Leishmania infantum [1] = test: Antileishmanial activity against Leishmania infantum MCAN/ES/89/IPZ229/1/89 promastigotes assessed as induction of cell death after 24 hrs by propidium iodide staining based flow cytometry; type: functional; settings: MCAN/ES/89/IPZ229/1/89, 24 h
Leishmania infantum [2] = test: Antileishmanial activity against Leishmania infantum axenic amastigotes assessed as induction of cell death after 24 hrs by propidium iodide staining based flow cytometry; type: functional
[3] = Cytotoxicity against human THP1 cells assessed as induction of cell death after 24 hrs by propidium iodide staining based flow cytometry; settings: THP-1 cells, read-out: LC50
Leishmania infantum [4] = test: Antileishmanial activity against Leishmania infantum MCAN/ES/89/IPZ229/1/89 promastigotes assessed as induction of cell death at 25 uM after 24 hrs by propidium iodide staining based flow cytometry; type: functional
Trypanothione reductase [5] = target: T1, Trypanothione reductase (Leishmania infantum, UniProt A4HSF7); test: Inhibition of recombinant Leishmania infantum TryR preincubated for 10 mins followed by T[S]2 substrate addition and measured after 1 hr in presence of NADPH
T1 sequence (A4HSF7 whole entry): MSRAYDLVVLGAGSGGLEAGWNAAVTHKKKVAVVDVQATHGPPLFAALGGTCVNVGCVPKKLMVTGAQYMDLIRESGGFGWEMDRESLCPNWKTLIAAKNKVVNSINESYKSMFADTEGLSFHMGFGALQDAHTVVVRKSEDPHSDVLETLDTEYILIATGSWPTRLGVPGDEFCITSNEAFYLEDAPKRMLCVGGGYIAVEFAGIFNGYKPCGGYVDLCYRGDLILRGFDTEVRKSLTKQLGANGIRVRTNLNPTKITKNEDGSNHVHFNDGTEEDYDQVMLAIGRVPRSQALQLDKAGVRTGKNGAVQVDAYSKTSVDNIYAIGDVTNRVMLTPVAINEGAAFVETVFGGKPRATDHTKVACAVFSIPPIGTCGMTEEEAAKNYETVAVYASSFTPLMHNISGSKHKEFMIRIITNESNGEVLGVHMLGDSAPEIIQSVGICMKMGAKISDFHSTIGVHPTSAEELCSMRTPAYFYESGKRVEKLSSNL

Leishmania infantum [6] = test: Antileishmanial activity against Leishmania infantum axenic amastigotes assessed as induction of cell death at 25 uM after 24 hrs by propidium iodide staining based flow cytometry; type: functional
Trypanothione reductase [7] = target: T1, Trypanothione reductase; test: Inhibition of recombinant His/FLAG-tagged Leishmania infantum TryR dimerization assessed as dimer disruption after 1 hr by ELISA

SMILES | LC50 (Leishmania infantum [1]) | LC50 (Leishmania infantum [2]) | CC50 at 24 h [3] | Activity (Leishmania infantum [4]) | IC50 (Trypanothione reductase [5]) | Activity (Leishmania infantum [6]) | IC50 (Trypanothione reductase [7])
CC(=O)N[C@@H](CCCNC(=N)N)C(=O)N[C@@H](CCCNC(=N)N)C(=O)N[C@@H](CCCNC(=N)N)C(=O)N[C@@H](CCCNC(=N)N)C(=O)N[C@@H](CCCNC(=N)N)C(=O)N[C@@H](CCCNC(=N)N)C(=O)N[C@@H](CCCNC(=N)N)C(=O)N[C@@H](CCCNC(=N)N)C(=O)N[C@@H](CCCNC(=N)N)C(N)=O | > 25 µM | > 25 µM | > 25 µM | – | – | – | –
CC[C@H](C)[C@H](NC(=O)CNC(=O)[C@@H](NC(=O)[C@H](CO)NC(=O)[C@H](CCC(N)=O)NC(=O)[C@@H](NC(=O)[C@@H](NC(=O)[C@H](CCCCN)NC(=O)[C@@H]1CCCN1C(C)=O)[C@@H](C)CC)[C@@H](C)CC)C(C)C)C(N)=O | – | – | – | inactive | 3.7 µM | inactive | 20.8 µM
CCCCC(NC(=O)[C@H](CCCCN)NC(=O)C(CCCC)NC(=O)[C@H](CO)NC(=O)[C@@H](NC(=O)CNC(=O)[C@@H](NC(=O)[C@H](CO)NC(=O)[C@H](CCC(N)=O)NC(=O)[C@@H](NC(=O)[C@@H](NC(=O)[C@H](CCCCN)NC(=O)[C@@H]1CCCN1C(C)=O)[C@@H](C)CC)[C@@H](C)CC)C(C)C)[C@@H](C)CC)C(=O)N[C@@H](CCCNC(=N)N)C(=O)N[C@@H](CCCNC(=N)N)C(=O)N[C@@H](CCCNC(=N)N)C(=O)N[C@@H](CCCNC(=N)N)C(=O)N[C@@H](CCCNC(=N)N)C(=O)N[C@@H](CCCNC(=N)N)C(=O)N[C@@H](CCCNC(=N)N)C(=O)N[C@@H](CCCNC(=N)N)C(=O)N[C@@H](CCCNC(=N)N)C(N)=O (stereo partly drawn) | 4.4 µM | 2.1 µM | 0.8 µM | – | – | – | –
CC(=O)NCC(=O)N[C@@H](CCCNC(=N)N)C(=O)N[C@@H](CCCCN)C(=O)N[C@@H](CCCCN)C(=O)N[C@@H](CCCNC(=N)N)C(=O)N[C@@H](CCCNC(=N)N)C(=O)N[C@@H](CCC(N)=O)C(=O)N[C@@H](CCCNC(=N)N)C(=O)N[C@@H](CCCNC(=N)N)C(=O)N[C@@H](CCCNC(=N)N)C(=O)N1CCC[C@H]1C(=O)N1CCC[C@H]1C(=O)N[C@@H](CCC(N)=O)C(N)=O | > 25 µM | > 25 µM | > 25 µM | – | – | – | –
CCCCC(NC(=O)[C@@H]1CCCCNC(=O)CC[C@H](NC(=O)[C@@H](NC(=O)[C@H](CO)NC(=O)[C@H](CCC(N)=O)NC(=O)[C@@H](NC(=O)[C@@H](NC(=O)[C@H](CCCCN)NC(=O)[C@@H]2CCCN2C(C)=O)[C@@H](C)CC)[C@@H](C)CC)C(C)C)C(=O)N[C@@H]([C@@H](C)CC)C(=O)N[C@@H](CO)C(=O)NC(CCCC)C(=O)N1)C(N)=O (stereo partly drawn) | – | – | – | inactive | 27 µM | inactive | 12.1 µM
CCCCC(NC(=O)[C@H](CCCCN)NC(=O)C(CCCC)NC(=O)[C@H](CO)NC(=O)[C@@H](NC(=O)[C@H](CCC(=O)O)NC(=O)[C@@H](NC(=O)[C@H](CO)NC(=O)[C@H](CCC(N)=O)NC(=O)[C@@H](NC(=O)[C@@H](NC(=O)[C@H](CCCCN)NC(=O)[C@@H]1CCCN1C(C)=O)[C@@H](C)CC)[C@@H](C)CC)C(C)C)[C@@H](C)CC)C(N)=O (stereo partly drawn) | – | – | – | inactive | > 75 µM | inactive | –
CCCCC(NC(=O)[C@H](CCCCN)NC(=O)C(CCCC)NC(=O)[C@H](CO)NC(=O)[C@@H](NC(=O)CNC(=O)[C@@H](NC(=O)[C@H](CO)NC(=O)[C@H](CCC(N)=O)NC(=O)[C@@H](NC(=O)[C@@H](NC(=O)[C@H](CCCCN)NC(=O)[C@@H]1CCCN1C(=O)[C@H](CCC(N)=O)NC(=O)[C@@H]1CCCN1C(=O)[C@@H]1CCCN1C(=O)[C@H](CCCNC(=N)N)NC(=O)[C@H](CCCNC(=N)N)NC(=O)[C@H](CCCNC(=N)N)NC(=O)[C@H](CCC(N)=O)NC(=O)[C@H](CCCNC(=N)N)NC(=O)[C@H](CCCNC(=N)N)NC(=O)[C@H](CCCCN)NC(=O)[C@H](CCCCN)NC(=O)[C@H](CCCNC(=N)N)NC(=O)CNC(C)=O)[C@@H](C)CC)[C@@H](C)CC)C(C)C)[C@@H](C)CC)C(N)=O (stereo partly drawn) (Ac-GRKKRRQRRRPPQPKIIQSVGIS[ξNle]K[ξNle]-NH2) | 4.3 µM | 1.5 µM | 1.2 µM | – | – | – | –
CC[C@H](C)[C@H](NC(=O)CNC(=O)[C@@H]1CCCCNC(=O)CC[C@H](NC(=O)[C@H](CCCCN)NC(=O)[C@@H]2CCCN2C(C)=O)C(=O)N[C@@H]([C@@H](C)CC)C(=O)N[C@@H](CCC(N)=O)C(=O)N[C@@H](CO)C(=O)N1)C(N)=O (Ac-PKEIQSKGI-NH2; lactam 3-7) | – | – | – | inactive | > 75 µM | inactive | > 75 µM
CCCCC(NC(=O)[C@H](CCCCN)NC(=O)C(CCCC)NC(=O)[C@H](CO)NC(=O)[C@@H](NC(=O)CNC(=O)[C@H](CCCCN)NC(=O)[C@H](CO)NC(=O)[C@H](CCC(N)=O)NC(=O)[C@@H](NC(=O)[C@H](CCC(=O)O)NC(=O)[C@H](CCCCN)NC(=O)[C@@H]1CCCN1C(C)=O)[C@@H](C)CC)[C@@H](C)CC)C(N)=O (stereo partly drawn) (Ac-PKEIQSKGIS[ξNle]K[ξNle]-NH2) | – | – | – | inactive | > 75 µM | inactive | –
CCCCC(NC(=O)[C@H](CCCCN)NC(=O)C(CCCC)NC(=O)[C@H](CO)NC(=O)[C@@H](NC(=O)[C@H](CCCCN)NC(=O)[C@@H](NC(=O)[C@H](CO)NC(=O)[C@H](CCC(N)=O)NC(=O)[C@H](CCC(=O)O)NC(=O)[C@@H](NC(=O)[C@H](CCCCN)NC(=O)[C@@H]1CCCN1C(C)=O)[C@@H](C)CC)C(C)C)[C@@H](C)CC)C(N)=O (stereo partly drawn) (Ac-PKIEQSVKIS[ξNle]K[ξNle]-NH2) | – | – | – | inactive | > 75 µM | inactive | –
